Key:
[1] = tested on: infant regional cerebral blood flow (rCBF); experiment: Arterial Spin Labeling (rCBF) of newborn brain vs HMO concentration in mother's milk at 1-month, voxel-wise multiple linear regression; assay type: in vivo, human; conditions: for association of exposure with rCBF: milk concentration at 1-month, total sample N=20, FDR-corrected; for B, association of exposure with rCBF: white matter
Source text: (§1) Twenty mother-infant pairs were recruited from maternity clinics in Los Angeles County as part of a larger cohort study, and inclusion criteria has been previously described. Briefly, mothers were included if they were ≥18 years old at delivery, had given birth to a full-term singleton newborn, were breastfeeding, and were enrolled within 1 month from delivery. […] The Institutional Review Board of Children's Hospital Los Angeles approved all procedures. Participants provided written informed consent prior to data collection.
(§2) Mother-infant pairs were assessed at 1-month postpartum. Historical health-related information was collected. Mothers pumped a full expression of breast milk that was analyzed for individual HMO concentrations. Infants underwent magnetic resonance imaging (MRI) scanning at approximately 1-month postpartum to assess brain tissue microstructure and regional cerebral blood flow (rCBF).
(§3) Breast milk was collected and analyzed following standard procedures. Mothers were asked to avoid eating and drinking for 1-hour and feeding or pumping breast milk for 1.5-hours before collection. Mothers were encouraged to pump the entire contents of a single breast expression to ensure collection of fore, mid, and hind milk to standardize milk collection as much as possible. Aliquots were stored at −80° C. until HMO characterization at the University of California San Diego. Raffinose was added to each sample as an internal standard for absolute quantification. HMOs were isolated with high-throughput solid-phase extraction, fluorescently labeled, and measured using HPLC. Nineteen HMOs were quantified based on standard retention times and mass spectrometric analysis, which accounted for >90% of total HMO composition. The initial focus, however, was on the most abundant fucosylated and sialylated HMOs reported to influence brain development in animals and infants: 2′FL, 3FL, 3′SL, and 6′SL. Secretor status was defined by the presence or near absence of HMOs 2′FL or lacto-N-fucopentaose I.
(§4) MRI data were collected on a 3 Tesla Philips Achieva MRI scanner equipped with a 32-channel receive-only head coil. All data were acquired without sedation or contrast agent. Mothers and staff lulled infants to sleep with feeding and swaddling. Scans were visually monitored and repeated for any visible motion. Detailed image quality was assessed during preprocessing within 48 hours of scan acquisition.
Arterial Spin Labeling (ASL), which quantifies rCBF, a surrogate measure of cellular metabolism: The rCBF brain images and the Mo_wM image to the first rCBF image for each participant were aligned in native imaging space to correct for head motion. Images with >0.5 mm inter-frame motion were excluded from further processing. […] An in-house software was used to construct for each infant a voxel-wise map of rCBF from the ASL time series and Mo_wm image: 1) pair-wise subtracted the control images from the labeled images; 2) Perfusion-weighted images were calculated by pair-wise subtraction of the control and labeled images, followed by averaging across the imaging time series. The perfusion map (rCBF) was calculated using a single compartment model. A linear transformation with 6 degrees of freedom was used to coregister the quantitative rCBF maps for each infant to their T1-weighted anatomical images, which were in turn used as an intermediary source to coregister the rCBF images for each infant to the final brain template. […]

piglets = conditions: cited from earlier work; for learning and memory tasks compared to controls: piglets fed the substance; for cognitive performance: piglets, feeding
[2] = tested on: infant brain tissue microstructure; experiment: Diffusion Tensor Imaging (FA, MD) of newborn brain vs HMO concentration in mother's milk at 1-month, voxel-wise multiple linear regression; assay type: in vivo, human; conditions: for association of exposure with FA values / association of exposure with MD values: milk concentration at 1-month, total sample N=20, FDR-corrected
Source text: as §1, §2, §3, §4
Diffusion Tensor Imaging (DTI), which measures the diffusion of water as influenced by characteristics of brain tissue microstructure: The template brain was selected using a 2-step procedure to find the brain that was morphologically representative of all brains in our sample, as described in FIG. 1. Quality assurance procedures were instituted to exclude datasets with excessive motion. The diffusion tensor (D) was estimated at each voxel of the pre-processed DTI data in DSI Studio (RRID:SCR_009557) and computed the scalar indices fractional anisotropy (FA), mean diffusivity (MD), axial diffusivity (AD), and radial diffusivity (RD). These maps were edited to remove nonbrain tissue and then were threshed to remove background noise. Edited MD map was used to mask out nonbrain tissue in the FA, AD, and RD maps. The edited maps for each infant were coregistered using a rigid body transformation (3 translations and 3 rotations) to the infant's T1-weighted (T1w) anatomical image, which were in turn used as an intermediary source to coregister the maps for each infant to the final template brain. The FA, AD, MD, and RD maps were then smoothed using a Gaussian kernel with FWHM=4 mm.
Descriptive statistics are presented as mean±standard deviation (SD) for continuous variables and as frequency (percentage) for categorical variables. Normal distribution and homogeneity of variances were confirmed by Shapiro-Wilks W and Levene's tests. Values >3 SD from the mean were identified as outliers. […]

| Compound | association of exposure with rCBF [1] | B, association of exposure with rCBF ([1]; CC) | B, association of exposure with rCBF ([1]; IC) | B, association of exposure with rCBF ([1]; aCR) | learning and memory tasks compared to controls (piglets) | cognitive performance (piglets) | B, association of exposure with MD values ([2]; left posterior corona radiata, pCR) | association of exposure with FA values [2] | association of exposure with MD values [2] | B, association of exposure with FA values ([2]; right DLPFC) | B, association of exposure with FA values ([2]; right aCR) |
| --- | --- | --- | --- | --- | --- | --- | --- | --- | --- | --- | --- |
| CC(=O)N[C@H]1[C@H]([C@H](O)[C@H](O)CO)O[C@@](O[C@H]2[C@@H](O)[C@@H](CO)O[C@@H](O[C@H]3[C@H](O)[C@@H](O)C(O)O[C@@H]3CO)[C@@H]2O)(C(=O)O)C[C@@H]1O (stereo partly shown) [3′SL, 3′-sialyllactose] | increased rCBF | 0.06 | 0.04 | 0.07 | performed better on learning and memory tasks | improved cognitive performance | −0.10 | increased FA values | reduced MD values | 0.03 | 0.04 |
| CC(=O)N[C@H]1[C@H]([C@H](O)[C@H](O)CO)O[C@@](OC[C@H]2O[C@@H](O[C@H]3[C@H](O)[C@@H](O)[C@H](O)O[C@@H]3CO)[C@H](O)[C@@H](O)[C@H]2O)(C(=O)O)C[C@@H]1O [6′SL, 6′-sialyllactose, reference compound] | not significantly associated | – | – | – | performed better on learning and memory tasks | improved cognitive performance | – | not significantly associated | not significantly associated | – | – |

— patent US20250000885A1, “COMPOSITION COMPRISING TWO OR MORE OLIGOSACCHARIDES” (Children's Hospital Los Angeles, priority 2022, published 2025)
